Experiments:
Test in all cases: Test D controlled growth environment herbicide test, pre- and postemergence
Assay type in all cases: in vivo
[1] = tested on: lambsquarters (Chenopodium album)
How it was run: (§1)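 Species sown in silt loam and sprayed preemergence, or grown in peat-based medium to 2–18 cm (1- to 4-leaf stage) and sprayed postemergence, with compounds in non-phytotoxic solvent plus surfactant. Visual injury scored versus controls after 14–21 d in a controlled environment, 0 (no effect) to 100 (complete control).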

[2] = tested on: bluegrass (annual bluegrass, Poa annua)
How it was run: as §1

[3] = tested on: oilseed rape (Brassica napus)
How it was run: as §1

[4] = tested on: ryegrass, Italian (Italian ryegrass, Lolium multiflorum)
How it was run: as §1

[5] = tested on: barley, spring (spring barley, Hordeum vulgare)
How it was run: as §1

[6] = tested on: mustard, wild (wild mustard, Sinapis arvensis)
How it was run: as §1

[7] = tested on: field poppy (Papaver rhoeas)
How it was run: as §1

[8] = tested on: chamomile (scentless chamomile, Matricaria inodora)
How it was run: as §1

[9] = tested on: speedwell (bird's-eye speedwell, Veronica persica)
How it was run: as §1

[10] = tested on: wheat, winter (winter wheat, Triticum aestivum)
How it was run: as §1

[11] = tested on: wheat, spring (spring wheat, Triticum aestivum)
How it was run: as §1

[12] = tested on: foxtail, green (green foxtail, Setaria viridis)
How it was run: as §1

[13] = tested on: blackgrass (Alopecurus myosuroides)
How it was run: as §1

[14] = Postemergence, 31 g ai/ha, scale 0 to 100 (0 no effect, 100 complete control)
[15] = Postemergence, 125 g ai/ha, visual rating on scale 0 (no effect) to 100 (complete control), 14 to 21 d
[16] = Postemergence, 250 g ai/ha, scale 0 to 100 (0 no effect, 100 complete control)
[17] = Preemergence, 62 g ai/ha, scale 0 to 100 (0 no effect, 100 complete control)
[18] = Preemergence, 125 g ai/ha, scale 0 to 100 (0 no effect, 100 complete control)
[19] = Preemergence, 250 g ai/ha, scale 0 to 100 (0 no effect, 100 complete control)
[20] = postemergence, 62 g ai/ha, scale 0 to 100, 0 no effect, 100 complete control

## COC(=O)Oc1c(C)nn(C)c(=O)c1-c1c(C)sc2c(C)cc(C)cc12 [Compound 81]
[1]; [14]
  Lambsquarters plant response rating: 95
[1]; [15]
  Plant response rating, Lambsquarters: 100
[1]; [16]
  Plant response rating, Lambsquarters: 100
[1]; Preemergence, 31 g ai/ha
  Plant response rating (scale of 0 to 100), Lambsquarters: 55
[1]; [17]
  Plant response rating, Lambsquarters: 95
[1]; [18]
  Plant response rating, Lambsquarters: 70
[1]; [19]
  Plant response rating, Lambsquarters: 95
[1]; [20]
  Plant response rating, Lambsquarters: 100
[2]; [14]
  Bluegrass plant response rating: 5
[2]; [15]
  Plant response rating, Bluegrass: 30
[2]; [16]
  Plant response rating, Bluegrass: 40
[2]; Preemergence, 31 g ai/ha
  Plant response rating (scale of 0 to 100), Bluegrass: 0
[2]; [17]
  Plant response rating, Bluegrass: 10
[2]; [18]
  Plant response rating, Bluegrass: 20
[2]; [19]
  Plant response rating, Bluegrass: 60
[2]; [20]
  Plant response rating, Bluegrass: 20
[3]; [14]
  Oilseed Rape plant response rating: 70
[3]; [15]
  Plant response rating, Oilseed Rape: 75
[3]; [16]
  Plant response rating, Oilseed Rape: 85
[3]; Preemergence, 31 g ai/ha
  Plant response rating (scale of 0 to 100), Oilseed Rape: 0
[3]; [17]
  Plant response rating, Oilseed Rape: 0
[3]; [18]
  Plant response rating, Oilseed Rape: 50
[3]; [19]
  Plant response rating, Oilseed Rape: 100
[3]; [20]
  Plant response rating, Oilseed Rape: 70
[4]; [14]
  Ryegrass, Italian plant response rating: 85
[4]; [15]
  Plant response rating, Ryegrass, Italian: 95
[4]; [16]
  Plant response rating, Ryegrass, Italian: 95
[4]; Preemergence, 31 g ai/ha
  Plant response rating (scale of 0 to 100), Ryegrass, Italian: 55
[4]; [17]
  Plant response rating, Ryegrass, Italian: 65
[4]; [18]
  Plant response rating, Ryegrass, Italian: 85
[4]; [19]
  Plant response rating, Ryegrass, Italian: 100
[4]; [20]
  Plant response rating, Ryegrass, Italian: 90
[5]; [14]
  Barley, Spring plant response rating: 0
[5]; [15]
  Plant response rating, Barley, Spring: 0
[5]; [16]
  Plant response rating, Barley, Spring: 10
[5]; Preemergence, 31 g ai/ha
  Plant response rating (scale of 0 to 100), Barley, Spring: 0
[5]; [17]
  Plant response rating, Barley, Spring: 0
[5]; [18]
  Plant response rating, Barley, Spring: 0
[5]; [19]
  Plant response rating, Barley, Spring: 5
[5]; [20]
  Plant response rating, Barley, Spring: 0
[6]; [14]
  Mustard, Wild plant response rating: 50
[6]; [15]
  Plant response rating, Mustard, Wild: 60
[6]; [16]
  Plant response rating, Mustard, Wild: 80
[6]; Preemergence, 31 g ai/ha
  Plant response rating (scale of 0 to 100), Mustard, Wild: 0
[6]; [17]
  Plant response rating, Mustard, Wild: 0
[6]; [18]
  Plant response rating, Mustard, Wild: 0
[6]; [19]
  Plant response rating, Mustard, Wild: 50
[6]; [20]
  Plant response rating, Mustard, Wild: 60
[7]; [14]
  Field Poppy plant response rating: 100
[7]; [15]
  Plant response rating, Field Poppy: 100
[7]; [16]
  Plant response rating, Field Poppy: 100
[7]; Preemergence, 31 g ai/ha
  Plant response rating (scale of 0 to 100), Field Poppy: 100
[7]; [17]
  Plant response rating, Field Poppy: 100
[7]; [18]
  Plant response rating, Field Poppy: 100
[7]; [19]
  Plant response rating, Field Poppy: 100
[7]; [20]
  Plant response rating, Field Poppy: 100
[8]; [14]
  Chamomile plant response rating: 100
[8]; [15]
  Plant response rating, Chamomile: 100
[8]; [16]
  Plant response rating, Chamomile: 100
[8]; [20]
  Plant response rating, Chamomile: 100
[9]; [14]
  Speedwell plant response rating: 75
[9]; [15]
  Plant response rating, Speedwell: 95
[9]; [16]
  Plant response rating, Speedwell: 100
[9]; Preemergence, 31 g ai/ha
  Plant response rating (scale of 0 to 100), Speedwell: 55
[9]; [17]
  Plant response rating, Speedwell: 60
[9]; [18]
  Plant response rating, Speedwell: 100
[9]; [19]
  Plant response rating, Speedwell: 100
[9]; [20]
  Plant response rating, Speedwell: 80
[10]; [14]
  Wheat, Winter plant response rating: 0
[10]; [15]
  Plant response rating, Wheat, Winter: 5
[10]; [16]
  Plant response rating, Wheat, Winter: 5
[10]; Preemergence, 31 g ai/ha
  Plant response rating (scale of 0 to 100), Wheat, Winter: 0
[10]; [17]
  Plant response rating, Wheat, Winter: 0
[10]; [18]
  Plant response rating, Wheat, Winter: 5
[10]; [19]
  Plant response rating, Wheat, Winter: 5
[10]; [20]
  Plant response rating, Wheat, Winter: 0
[11]; [14]
  Wheat, Spring plant response rating: 0
[11]; [15]
  Plant response rating, Wheat, Spring: 0
[11]; [16]
  Plant response rating, Wheat, Spring: 20
[11]; Preemergence, 31 g ai/ha
  Plant response rating (scale of 0 to 100), Wheat, Spring: 0
[11]; [17]
  Plant response rating, Wheat, Spring: 0
[11]; [18]
  Plant response rating, Wheat, Spring: 0
[11]; [19]
  Plant response rating, Wheat, Spring: 40
[11]; [20]
  Plant response rating, Wheat, Spring: 0
[12]; [14]
  Foxtail, Green plant response rating: 80
[12]; [15]
  Plant response rating, Foxtail, Green: 95
[12]; [16]
  Plant response rating, Foxtail, Green: 100
[12]; Preemergence, 31 g ai/ha
  Plant response rating (scale of 0 to 100), Foxtail, Green: 75
[12]; [17]
  Plant response rating, Foxtail, Green: 65
[12]; [18]
  Plant response rating, Foxtail, Green: 100
[12]; [19]
  Plant response rating, Foxtail, Green: 100
[12]; [20]
  Plant response rating, Foxtail, Green: 95
[13]; [14]
  Blackgrass plant response rating: 65
[13]; [15]
  Plant response rating, Blackgrass: 80
[13]; [16]
  Plant response rating, Blackgrass: 85
[13]; Preemergence, 31 g ai/ha
  Plant response rating (scale of 0 to 100), Blackgrass: 55
[13]; [17]
  Plant response rating, Blackgrass: 60
[13]; [18]
  Plant response rating, Blackgrass: 70
[13]; [19]
  Plant response rating, Blackgrass: 85
[13]; [20]
  Plant response rating, Blackgrass: 75
